Data published in patent publication US11427548B2 (Arvinas Operations, Inc., priority 2015, dated 2022).
Where two headings read alike, the source gives them in different places.

Molecular target: T1, Androgen Receptor (Homo sapiens, UniProt P10275)
T1 construct: endogenous in cells; host or cells: VCaP cells
T1 sequence (P10275 1-920): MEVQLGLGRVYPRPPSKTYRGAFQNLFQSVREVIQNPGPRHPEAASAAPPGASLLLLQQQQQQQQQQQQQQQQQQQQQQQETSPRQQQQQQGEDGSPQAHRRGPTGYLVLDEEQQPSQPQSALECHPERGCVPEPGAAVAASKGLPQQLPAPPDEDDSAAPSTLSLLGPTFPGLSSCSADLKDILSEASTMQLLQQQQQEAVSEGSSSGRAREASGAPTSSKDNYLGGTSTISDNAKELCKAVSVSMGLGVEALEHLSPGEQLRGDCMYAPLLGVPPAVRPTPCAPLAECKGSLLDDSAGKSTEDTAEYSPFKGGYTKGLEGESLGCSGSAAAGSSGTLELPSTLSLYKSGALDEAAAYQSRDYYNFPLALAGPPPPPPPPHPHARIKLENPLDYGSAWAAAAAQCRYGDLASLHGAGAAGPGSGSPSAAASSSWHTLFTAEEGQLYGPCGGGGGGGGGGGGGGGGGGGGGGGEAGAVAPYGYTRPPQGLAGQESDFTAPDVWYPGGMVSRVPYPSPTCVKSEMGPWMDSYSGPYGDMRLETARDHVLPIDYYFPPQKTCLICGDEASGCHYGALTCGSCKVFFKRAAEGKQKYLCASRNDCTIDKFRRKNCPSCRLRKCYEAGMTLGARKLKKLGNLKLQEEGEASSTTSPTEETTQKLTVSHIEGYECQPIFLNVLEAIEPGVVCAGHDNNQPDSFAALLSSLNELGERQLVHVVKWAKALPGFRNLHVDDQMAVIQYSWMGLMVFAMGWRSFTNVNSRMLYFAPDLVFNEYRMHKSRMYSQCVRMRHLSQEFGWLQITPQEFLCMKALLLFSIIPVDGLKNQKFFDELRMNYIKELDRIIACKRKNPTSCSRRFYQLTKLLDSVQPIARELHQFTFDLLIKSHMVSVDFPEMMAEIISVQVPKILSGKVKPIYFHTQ
Test: Androgen Receptor ELISA assay (PathScan AR ELISA) in VCaP cells: AR degradation, Dmax and DC50
Format: cell-based
Method in brief: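 After 24 h exposure of VCaP cells (charcoal-stripped serum, 0.1 nM R1881 agonist, 0.1% DMSO) to seven half-log compound concentrations, residual AR in lysates was measured by PathScan ELISA (TMB absorbance, 450 nm). Cells were plated at 30,000/well and grown at least 3 days beforehand.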

[1] = VCaP cells; Table 35; read-out: VCaP DC50
[2] = VCaP, VCaP cells; Table 35; read-out: VCaP Dmax (%)
[3] = VCaP cells; Table 36; read-out: VCaP DC50
[4] = VCaP, VCaP cells; Table 36; read-out: VCaP Dmax (%)
[5] = read-out: VCaP DC50; concentration that caused 50% Androgen Receptor degradation, VCaP cells

Q: Which DC50 [1] does the source give for `Cc1ncsc1-c1ccc([C@H](C)NC(=O)[C@@H]2C[C@@H](O)CN2C(=O)[C@@H](NC(=O)COCCCCCNc2ccc(C(=O)N[C@H]3C(C)(C)[C@H](Oc4ccc(C#N)c(Cl)c4)C3(C)C)nc2)C(C)(C)C)cc1` [Example 482] here?
A: < 50 nM

Q: What about the Dmax [2] of the same compound?
A: 51 to 70%

Q: How did the Dmax (VCaP, VCaP cells; Table 34; read-out: VCaP Dmax (%)) turn out when `Cc1ncsc1-c1ccc(CNC(=O)[C@@H]2C[C@@H](O)CN2C(=O)[C@@H](NC(=O)COCCCOc2ccc(C(=O)N[C@H]3C(C)(C)[C@H](Oc4ccc(C#N)c(Cl)c4)C3(C)C)cc2)C(C)(C)C)cc1` [Example 387] was run?
A: < 25%

Q: Which results are given for `Cc1ncsc1-c1ccc([C@H](C)NC(=O)[C@@H]2C[C@@H](O)CN2C(=O)[C@@H](NC(=O)COC2CN(CCNc3ccc(C(=O)N[C@H]4C(C)(C)[C@H](Oc5ccc(C#N)c(Cl)c5)C4(C)C)cn3)C2)C(C)(C)C)cc1` [Example 842, N-((1r,3r)-3-(3-chloro-4-cyanophenoxy)-2,2,4,4-tetramethylcyclobutyl)-6-((2-(3-(2-(((S)-1-((2S,4R)-4-hydroxy-2-(((S)-1-(4-(4-methylthiazol-5-yl)phenyl)ethyl)carbamoyl)pyrrolidin-1-yl)-3,3-dimethyl-1-oxobutan-2-yl)amino)-2-oxoethoxy)azetidin-1-yl)ethyl)amino) nicotinamide]?
A: DC50 [3]: < 50 nM; Dmax [4]: 26 to 50%

Q: How did the DC50 (read-out: VCaP DC50; VCaP cells; Table 35) turn out when `Cc1ncsc1-c1ccc([C@H](C)NC(=O)[C@@H]2C[C@@H](O)CN2C(=O)[C@H](C(C)C)n2cc(OCCCOCCCCCOc3ccc(N4C(=S)N(c5ccc(C#N)c(C(F)(F)F)c5)C(=O)C4(C)C)cc3)cn2)cc1` [Example 435] was run?
A: > 501 nM

Q: Which Dmax (VCaP, read-out: VCaP Dmax (%)) does the source give for `Cc1ncsc1-c1ccc(CNC(=O)[C@@H]2C[C@@H](O)CN2C(=O)[C@@H](NC(=O)COCCCOCCCCOc2ccc(N3C(=S)N(c4ccc(C#N)c(C(F)(F)F)c4)C(=O)C3(C)C)cn2)C(C)(C)C)cc1` [Example 40, (2S,4R)-1-[(2S)-2-[2-(3-{4-[(5-{3-[4-cyano-3-(trifluoromethyl)phenyl]-5,5-dimethyl-4-oxo-2-sulfanylideneimidazolidin-1-yl}pyridin-2-yl)oxy]butoxy}propoxy)acetamido]-3,3-dimethylbutanoyl]-4-hydroxy-N-{[4-(4-methyl-1,3-thiazol-5-yl)phenyl]methyl}pyrrolidine-2-carboxamide] here?
A: 51 to 70%

Q: And the DC50 [5]?
A: < 50 nM

Q: Which results are given for `Cc1ncsc1-c1ccc(CNC(=O)[C@@H]2C[C@@H](O)CN2C(=O)[C@@H](NC(=O)COCCN2CCC(c3ccc(C(=O)N[C@H]4C(C)(C)[C@H](Oc5ccc(C#N)c(Cl)c5)C4(C)C)cc3)CC2)C(C)(C)C)cc1` [Example 525]?
A: DC50 [1]: > 501 nM; Dmax [2]: 51 to 70%

Q: Which results are given for `CC(C)(C)[C@H](NC(=O)COCCCOCCCCOc1ccc(N2C(=S)N(c3ccc(C#N)c(C(F)(F)F)c3)C(=O)C2(C)C)cc1)C(=O)N1C[C@H](O)C[C@H]1C(=O)NCc1ccc(-c2cnco2)cc1` [Example 34, (2S,4R)-1-[(2S)-2-(2-{3-[4-(4-{3-[4-cyano-3-(trifluoromethyl)phenyl]-5,5-dimethyl-4-oxo-2-sulfanylideneimidazolidin-1-yl}phenoxy)butoxy]propoxy}acetamido)-3,3-dimethylbutanoyl]-4-hydroxy-N-{[4-(l,3-oxazol-5-yl)phenyl]methyl}pyrrolidine-2-carboxamide]?
A: Dmax (VCaP, read-out: VCaP Dmax (%)): > 71%; DC50 [5]: < 50 nM

Q: What does the source list for `Cc1ncsc1-c1ccc([C@H](C)NC(=O)[C@@H]2C[C@@H](O)CN2C(=O)[C@@H](c2cc(N3CCN(CCCc4ccc(C(=O)N[C@H]5C(C)(C)[C@H](Oc6ccc(C#N)c(Cl)c6)C5(C)C)cc4)CC3)no2)C(C)C)cc1` [Example 797, (2S,4R)-1-((R)-2-(3-(4-(3-(4-(((1r,3r)-3-(3-chloro-4-cyanophenoxy)-2,2,4,4-tetramethylcyclobutyl)carbamoyl)phenyl)propyl)piperazin-1-yl)isoxazol-5-yl)-3-methylbutanoyl)-4-hydroxy-N-((S)-1-(4-(4-methylthiazol-5-yl)phenyl)ethyl)pyrrolidine-2-carboxamide]?
A: DC50 [3]: < 50 nM; Dmax [4]: 51 to 70%

Q: For `Cc1ncsc1-c1ccc([C@H](C)NC(=O)[C@@H]2C[C@@H](O)CN2C(=O)[C@@H](NC(=O)COCCCCOc2ccc(C(=O)N[C@H]3C(C)(C)[C@H](Oc4ccc(C#N)c(C(F)(F)F)c4)C3(C)C)cc2)C(C)(C)C)cc1` [Example 641, (2S,4R)-1-((S)-2-(2-(4-(4-(((1r,3r)-3-(4-cyano-3-(trifluorometh-yl)phenoxy)-2,2,4,4-tetramethylcyclobutyl)carbamoyl)phenoxy)butoxy)acetamido)-3,3-dimethylbutanoyl)-4-hydroxy-N-((S)-1-(4-(4-methylthiazol-5-yl)phenyl)ethyl)pyrrolidine-2-carboxamide], which DC50 [3] is on record?
A: < 50 nM

Q: And the Dmax (VCaP, read-out: VCaP Dmax (%), VCaP cells; Table 36)?
A: > 71%

Q: How did the Dmax (VCaP, highest percentage of Androgen Receptor degradation observed, VCaP cells; read-out: VCaP Dmax (%)) turn out when `COc1cc(N2C(=O)C(C)(C)N(c3ccc(OCCCCOCCCOCC(=O)N[C@H](C(=O)N4C[C@H](O)C[C@H]4C(=O)NCc4ccc(-c5scnc5C)cc4)C(C)(C)C)c(F)c3)C2=S)ccc1C#N` [Example 42, (2S,4R)-1-[(2S)-2-{2-[3-(4-{4-[3-(4-cyano-3-methoxyphenyl)-5,5-dimethyl-4-oxo-2-sulfanylideneimidazolidin-1-yl]-2-fluorophenoxy}butoxy)propoxy]acetamido}-3,3-dimethylbutanoyl]-4-hydroxy-N-{[4-(4-methyl-1,3-thiazol-5-yl)phenyl]methyl}pyrrolidine-2-carboxamide] was run?
A: 51 to 70%

Q: What about the DC50 (concentration that caused 50% Androgen Receptor degradation, VCaP cells; read-out: VCaP DC50) of the same compound?
A: < 50 nM

Q: Which results are given for `Cc1ncsc1-c1ccc([C@H](C)NC(=O)C2C[C@@H](O)CN2C(=O)C(NC(=O)CN2CCN(CCN3CCN(c4ccc(C(=O)NC5C(C)(C)C(Oc6ccc(C#N)c(Cl)c6)C5(C)C)cn4)C[C@H]3CO)CC2)C(C)(C)C)cc1` (stereo partly drawn) [Example 843, N-((1r,3S)-3-(3-chloro-4-cyanophenoxy)-2,2,4,4-tetramethylcyclobutyl)-6-((S)-4-(2-(4-(2-(((S)-1-((2S,4R)-4-hydroxy-2-(((S)-1-(4-(4-methylthiazol-5-yl)phenyl)ethyl)carbamoyl)pyrrolidin-1-yl)-3,3-dimethyl-1-oxobutan-2-yl)amino)-2-oxoethyl)piperazin-1-yl)ethyl)-3-(hydroxymethyl)piperazin-1-yl) nicotinamide]?
A: DC50 [3]: < 50 nM; Dmax [4]: 51 to 70%

Q: `COc1cc(OCCCCOCC(=O)N[C@H](C(=O)N2C[C@H](O)C[C@H]2C(=O)NCc2ccc(-c3scnc3C)cc2)C(C)(C)C)ccc1-c1ccc(N2C(=S)N(c3ccc(C#N)c(C(F)(F)F)c3)C(=O)C2(C)C)cc1` [Example 140, (2S,4R)-1-[(2S)-2-(2-{4-[4-(4-{3-[4-cyano-3-(trifluoromethyl)phenyl]-5,5-dimethyl-4-oxo-2-sulfanylideneimidazolidin-1-yl}phenyl)-3-methoxyphenoxy]butoxy}acetamido)-3,3-dimethylbutanoyl]-4-hydroxy-N-{[4-(4-methyl-1,3-thiazol-5-yl)phenyl]methyl}pyrrolidine-2-carboxamide] was tested. Which Dmax (VCaP, read-out: VCaP Dmax (%)) did it give?
A: > 71%

Q: What about the DC50 (read-out: VCaP DC50; concentration that caused 50% Androgen Receptor degradation, VCaP cells (Table 32)) of the same compound?
A: < 50 nM

Q: For `Cc1ncsc1-c1ccc([C@H](C)NC(=O)[C@@H]2C[C@@H](O)CN2C(=O)[C@H](C(C)C)N(C)C(=O)CN2CCN(CCOc3ccc(C(=O)N[C@H]4C(C)(C)[C@H](Oc5ccc(C#N)c(Cl)c5)C4(C)C)cc3)CC2)cc1` [Example 683, (2S,4R)-1-(N-(2-(4-(2-(4-(((1r,3r)-3-(3-chloro-4 cyanophenoxy)-2,2,4,4-tetramethylcyclobutyl)carbamoyl)phenoxy)eth-yl)piperazin-1-yl)acetayl)-N-methyl-L-valyl)-4-hydroxy-N-((S)-1-(4-(4-methylthiazol-5-yl)phenyl)ethyl)pyrrolidine-2-carboxamide], which DC50 [3] is on record?
A: > 501 nM

Q: And the Dmax [4]?
A: 26 to 50%

Q: What does the source list for `Cc1ncsc1-c1ccc([C@H](C)NC(=O)[C@@H]2C[C@@H](O)CN2C(=O)[C@@H](NC(=O)COCCCCCNc2ccc(C(=O)N[C@H]3C(C)(C)[C@H](Oc4ccc(C#N)c(Cl)c4)C3(C)C)nc2)C(C)C)cc1` [Example 670, N-((1r,3r)-3-(3-chloro-4-cyanophenoxy)-2,2,4,4-tetramethylcyclobutyl)-5-((5-(2-(((S)-1-((2S,4R)-4-hydroxy-2-(((S)-1-(4-(4-methylthiaozl-5-yl)phenyl)ethyl)carbam-oyl)pyrrolidin-1-yl)-3-methyl-1-oxobutan-2-yl)amino)-2-oxoethoxy)pentyl)amino) picolinamide]?
A: DC50 [3]: > 501 nM; Dmax [4]: < 25%
